Columns and labels:
[1] = system: USP30 constructs (construct 1, chimeras 1–3); test: Ub–RhoG cleavage enzyme inhibition assay, statements across constructs; type: biochemical, human; conditions: addition of hydroxyl group at the tert-butyl group
Experimental: Enzyme kinetics were performed in black, low-volume, non-binding-surface 384-well plates. For activity assays, 2× Ub–RhoG substrate (final concentration, 50 nM) and 2× enzyme (final concentration, 0.25–32 nM) were prepared in 20 mM HEPES, pH 8.0, 50 mM NaCl, 5 mM DTT, 0.1 mg ml^−1 BSA. Next, 10 µl of 2× enzyme solution was added in triplicate to the plate. The reaction was started by adding 10 µl of 2× substrate solution. For enzyme inhibition assays, 2× substrate (final concentration, 100 nM), 4× enzyme (final concentration, 0.1 nM) and 4× inhibitor (final concentration, 1.6 pM–1.6 μM) were prepared in 50 mM Tris-HCl, pH 8.0, 0.05 mg ml^−1 BSA, 4 mM DTT, 0.01% Tween-20. Inhibitor solution (4×) was added to 4× enzyme solution to create a 2× enzyme–inhibitor mixture. Next, 10 µl of this 2× enzyme–inhibitor mixture was then added to the plate in triplicate, and the plate was incubated at room temperature for 90 min. The reaction was started by adding 10 µl of 2× Ub–RhoG substrate. Substrate cleavage was monitored by measurement of cleaved RhoG fluorescence (excitation, 492 nm; emission, 525 nm) every 30 s for 1 h at 25 °C on a Tecan Spark plate reader. Data were analyzed with GraphPad Prism.

[2] = system: overexpressed USP30 F157A, I154A, A162S in HEK293 cells; test: Cellular ubiquitin probe competition, overexpressed USP30 F157A, I154A, A162S; type: cell-based, human; conditions: 2 µM compound, 2 h
Experimental: HEK293 cells (8 × 10^5 cells per well) were seeded in six-well plates and cultivated for 24 h. PEI transfecting reagent (Polysciences) was pre-incubated for 10 min with the vectors in 200 μl Opti-MEM medium (2 µg DNA per well). Cells were transfected and incubated for 48 h. Following the treatment with either compounds or DMSO in fresh medium for an additional 2 h, cells were processed as described below. Cells were seeded at 8 × 10^5 cells per well and grown for 48 h. […] The medium was aspirated, and cells were washed once with ice-cold PBS. Cells were collected by scraping in lysis buffer (150 mM NaCl, 250 mM sucrose, 50 mM Tris, pH 8.0, 5 mM TCEP) supplemented with EDTA-free complete protease inhibitor cocktail and benzonase. Suspended cells were homogenized by 12 bursts of a microtip probe sonicator (Branson Sonifier 450) at 10% amplitude with pulses of 1 s on ice. Remaining cell debris was separated by centrifugation (20,817g, 5 min, 4 °C). […] After incubation for 10 min at room temperature, reactions were quenched by the addition of 4× reducing LDS sample buffer. Samples were resolved by SDS–PAGE and further analyzed via western blot. Using a Trans-Blot Turbo system (Bio-Rad, 1.0 A, 25 V, 30 min), proteins were blotted onto a nitrocellulose membrane. […]

[3] = target: USP30^ch3 A162S (Homo sapiens, UniProt Q70CQ3, A162S, form not given); test: Ub–RhoG cleavage enzyme inhibition assay, chimera 3 A162S; type: biochemical; conditions: mean n=3
Experimental: (§1) Enzyme kinetics were performed in black, low-volume, non-binding-surface 384-well plates. […] Next, 10 µl of 2× enzyme solution was added in triplicate to the plate. The reaction was started by adding 10 µl of 2× substrate solution. […] Inhibitor solution (4×) was added to 4× enzyme solution to create a 2× enzyme–inhibitor mixture. Next, 10 µl of this 2× enzyme–inhibitor mixture was then added to the plate in triplicate, and the plate was incubated at room temperature for 90 min. The reaction was started by adding 10 µl of 2× Ub–RhoG substrate. […] Data were analyzed with GraphPad Prism.

[4] = target: USP30^ch3 F157A (Homo sapiens, UniProt Q70CQ3, F157A, form not given); test: Ub–RhoG cleavage enzyme inhibition assay, chimera 3 F157A; type: biochemical; conditions: mean n=3
Experimental: as §1

[5] = system: other DUBs; conditions: at 100 µM; cited from earlier work
[6] = system: recombinant USP30; conditions: read-out: Ub–Rho IC50 against recombinant USP30; cited from earlier work
[7] = target: USP30^ch3 (Homo sapiens, UniProt Q70CQ3); test: Thermal shift assay, USP30 ch3; type: binding; conditions: 20 μM inhibitor
Experimental: The thermal stability of USP30 constructs and effects of either inhibitor or Ub-PA binding were determined by thermal shift assays. Inhibitor, Ub-PA and SYPRO orange dye (Sigma, 5,000× stock in DMSO) solutions were prepared in 1× PBS, 4 mM DTT. Inhibitor/Ub-PA was prediluted to 100 µM, and SYPRO orange dye was prediluted to 50× (from the commercial stock). Mixtures of protein, inhibitor/Ub-PA and SYPRO were prepared with inhibitor/Ub-PA at a final concentration of 20 μM, SYPRO at a final concentration of 4× and protein at a final concentration of 2 μM for c1, 4 μM for ch1, ch4 and c2 and 3 μM for ch2 and ch3. Samples were added in triplicate to a white 96-well PCR plate (Bio-Rad). Fluorescence intensity was monitored (excitation, 450–490 nm; emission, 560–580 nm) at a gradient of 20–90 °C (increment of 0.3 °C, hold for 5 s before read) on a real-time PCR system (Bio-Rad).

[8] = system: USP30; set-up: method as in PMID 37385347; conditions: ‘pseudo-covalent’ binding mode proposed; cited from earlier work

USP30^ch3 A162S, sequence (Q70CQ3 64-502 A162S, form open): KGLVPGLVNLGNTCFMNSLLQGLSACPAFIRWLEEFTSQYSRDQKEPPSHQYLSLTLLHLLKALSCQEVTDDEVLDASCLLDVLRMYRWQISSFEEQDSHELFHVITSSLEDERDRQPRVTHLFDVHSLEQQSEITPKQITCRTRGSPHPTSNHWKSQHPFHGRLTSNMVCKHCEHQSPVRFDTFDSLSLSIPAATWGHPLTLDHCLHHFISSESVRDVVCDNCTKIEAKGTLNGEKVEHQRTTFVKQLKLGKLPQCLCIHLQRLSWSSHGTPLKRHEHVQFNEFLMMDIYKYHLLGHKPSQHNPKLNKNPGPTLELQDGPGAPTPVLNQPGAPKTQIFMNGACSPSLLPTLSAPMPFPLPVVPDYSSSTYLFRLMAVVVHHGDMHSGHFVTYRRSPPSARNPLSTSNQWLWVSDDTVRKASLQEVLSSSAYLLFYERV
USP30^ch3 A162S, sequence (P54578 248-318 partner, form open): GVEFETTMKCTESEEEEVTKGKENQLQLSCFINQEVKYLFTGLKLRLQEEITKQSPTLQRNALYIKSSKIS
USP30^ch3 A162S, sequence (Q9P2H5 821-846 partner, form open): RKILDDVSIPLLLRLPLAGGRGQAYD
USP30^ch3 F157A, sequence (Q70CQ3 64-502 F157A, form open): as the sequence (Q70CQ3 64-502 A162S, form open) above, with F94A, S99A counted along it
USP30^ch3 F157A, sequence (P54578 248-318 partner, form open): as the sequence (P54578 248-318 partner, form open) above
USP30^ch3, sequence (Q70CQ3 64-502): as the sequence (Q70CQ3 64-502 A162S, form open) above, with S99A counted along it
USP30^ch3, sequence (P54578 248-318 partner): as the sequence (P54578 248-318 partner, form open) above

## CC(C)(CO)NS(=O)(=O)c1ccc(NC(=O)[C@H](Cc2ccccc2)NC(=O)c2ccc(F)cc2)cc1 [NK036]
[1]
  decrease in potency relative to compound 39: about one order of magnitude
[2]
  inhibition of overexpressed USP30 F157A, I154A, A162S in cells: refractory to inhibition

## CC(C)(C)NS(=O)(=O)c1ccc(NC(=O)[C@H](Cc2ccccc2)NC(=O)c2ccc(F)cc2)cc1 [compound 39]
[3]; inhibitor 0.001563 nM
  USP30ch3 A162S activity: 0.9737
[3]; inhibitor 0.00625 nM
  USP30ch3 A162S activity: 1.01
[3]; inhibitor 0.025 nM
  USP30ch3 A162S activity: 0.9776
[3]; inhibitor 0.1 nM
  USP30ch3 A162S activity: 0.9451
[3]; inhibitor 0.39 nM
  USP30ch3 A162S activity: 0.896
[3]; inhibitor 1.56 nM
  USP30ch3 A162S activity: 0.93
[3]; inhibitor 6.25 nM
  USP30ch3 A162S activity: 0.7972
[3]; inhibitor 25 nM
  USP30ch3 A162S activity: 0.6308
[3]; inhibitor 100 nM
  USP30ch3 A162S activity: 0.4027
[3]; inhibitor 400 nM
  USP30ch3 A162S activity: 0.2411
[3]; inhibitor 1600 nM
  USP30ch3 A162S activity: 0.2091
[4]; inhibitor 0.001563 nM
  USP30ch3 F157A activity: 0.978
[4]; inhibitor 0.00625 nM
  USP30ch3 F157A activity: 1.043
[4]; inhibitor 0.025 nM
  USP30ch3 F157A activity: 0.9706
[4]; inhibitor 0.1 nM
  USP30ch3 F157A activity: 0.9583
[4]; inhibitor 0.39 nM
  USP30ch3 F157A activity: 0.8963
[4]; inhibitor 1.56 nM
  USP30ch3 F157A activity: 0.8924
[4]; inhibitor 6.25 nM
  USP30ch3 F157A activity: 0.7707
[4]; inhibitor 25 nM
  USP30ch3 F157A activity: 0.6122
[4]; inhibitor 100 nM
  USP30ch3 F157A activity: 0.362
[4]; inhibitor 400 nM
  USP30ch3 F157A activity: 0.2241
[4]; inhibitor 1600 nM
  USP30ch3 F157A activity: 0.2066
[5]
  inhibition of other DUBs in a panel of recombinant enzymes: no other DUB being inhibited
[6]
  IC50: 2 to 20 nM
[7]
  Tm in presence of compound, USP30^ch3: 61.5 °C
[8]
  off-rate: exceptionally slow off-rate

Source: publication PMC12440824, “Chimeric deubiquitinase engineering reveals structural basis for specific inhibition of the mitophagy regulator USP30” (Nature Structural & Molecular Biology, 2025)
